Results on 5 compounds are retold here after ChEMBL document CHEMBL3132783, “Design, synthesis and biological evaluation of novel ligustrazinylated derivatives as potent cardiovascular agents” (Medchemcomm, 2013).

In one test the test system is ECV-304. The test can be described thus: Ratio of ligustrazine EC50 to compound EC50 for human ECV304 cells. Format: functional.
Test [1] in a line: Cytoprotective activity in H2O2-induced human ECV304 cells assessed as proliferation rate incubated for 24 hrs prior to H2O2-challenge measured after 12 hrs by MTT assay. The settings on record: ECV-304. The class given is functional, cell-based. Background: Formazan colour is commonly taken as a measure of viable cells.
Test [2] can be described thus: Cytoprotective activity in H2O2-induced human ECV304 cells assessed as proliferation rate at 12.5 uM incubated for 24 hrs prior to H2O2-challenge measured after 12 hrs by MTT assay relative to control. Format: functional. The conditions noted are these: ECV-304, read-out: Activity.
The nature of test [3]: Cytoprotective activity in H2O2-induced human ECV304 cells assessed as proliferation rate at 25 uM incubated for 24 hrs prior to H2O2-challenge measured after 12 hrs by MTT assay relative to control. Format: functional. The settings on record: ECV-304, read-out: Activity.
A short description of test [4]: Cytoprotective activity in H2O2-induced human ECV304 cells assessed as proliferation rate at 50 uM incubated for 24 hrs prior to H2O2-challenge measured after 12 hrs by MTT assay relative to control. The settings on record: ECV-304, read-out: Activity. The class given is functional.
Test [5] can be described thus: Cytoprotective activity in H2O2-induced human ECV304 cells assessed as proliferation rate at 100 uM incubated for 24 hrs prior to H2O2-challenge measured after 12 hrs by MTT assay relative to control. The class given is functional. The settings on record: ECV-304, read-out: Activity.
A short description of test [6]: Antiplatelet activity in rabbit platelet rich plasma assessed as inhibition of ADP-induced aggregation treated for 5 mins prior to ADP-challenge. Format: functional. The settings on record: Oryctolagus cuniculus.
Test [7] is described as follows: Antiplatelet activity in rabbit platelet rich plasma assessed as inhibition of ADP-induced aggregation at 0.05 mM treated for 5 mins prior to ADP-challenge relative to control. Format: functional. The settings on record: Oryctolagus cuniculus.
Test [8] can be described thus: Antiplatelet activity in rabbit platelet rich plasma assessed as inhibition of ADP-induced aggregation at 0.1 mM treated for 5 mins prior to ADP-challenge relative to control. Format: functional. The settings on record: Oryctolagus cuniculus.
Test [9] is described as follows: Antiplatelet activity in rabbit platelet rich plasma assessed as inhibition of ADP-induced aggregation at 0.4 mM treated for 5 mins prior to ADP-challenge relative to control. The class given is functional. The settings on record: Oryctolagus cuniculus.
Test [10] in a line: Antiplatelet activity in rabbit platelet rich plasma assessed as inhibition of ADP-induced aggregation at 0.2 mM treated for 5 mins prior to ADP-challenge relative to control. Format: functional. The conditions noted are these: Oryctolagus cuniculus.

For orientation: EC50 means the concentration that produces a half-maximal response. As a reminder, the IC50 is the concentration at which inhibition is half-maximal. Broadly, the inhibition is the drop in the measured response relative to a control, in per cent. As to `Cc1nc(C)c(COC(=O)CCCC[C@@H]2CCSS2)nc1C`, in the test on ECV-304, the “Ratio EC50” value is 150. Moreover, the EC50 in test [1] amounted to 4 µM. Besides, the growth at 12.5 µM in test [2] was -60%. Besides, the growth at 25 µM in [3] is 71.4%. Further, the growth at 50 µM in test [4] came out at 160%. The growth at 100 µM in test [5] worked out at 206%. Moreover, the 50% inhibitory concentration (IC50) in [6] was more than 2000 µM. In [7], the inhibition at 50 µM came to 18.8%. Moreover, the inhibition at 100 µM in [8] stood at 13.4%. The inhibition at 400 µM in test [9] amounted to 27.6%. Moreover, the inhibition at 200 µM in test [10] came out at 29%.
As to `CCOC(=O)c1ccccc1OCc1nc(C)c(C)nc1C`, in [1], the 50% effective concentration (EC50) came to 1000 µM. Also, the growth at 12.5 µM in test [2] turned out to be 17.3%. Also, in test [3], the growth at 25 µM was 18.1%. Besides, the growth at 50 µM in test [4] came to 19.2%. For the same compound, the growth at 100 µM in test [5] was determined as 20%. Besides, in test [6], the IC50 was found to be 2000 µM. Further, the inhibition at 50 µM in test [7] was 8.7%. Besides, the inhibition at 100 µM in test [8] was found to be 10.8%. Besides, in test [9], the inhibition at 400 µM is 21.2%. Besides, the inhibition at 200 µM in test [10] was found to be 16.8%.
Regarding `CCOC(=O)c1ccc(OCc2nc(C)c(C)nc2C)c(OC)c1`, the concentration for a half-maximal effect (EC50) in test [1] came to 3200 µM. In addition, the growth at 12.5 µM in test [2] was found to be 14.9%. In addition, the growth at 25 µM in test [3] stood at 15.5%. In addition, the growth at 50 µM in test [4] was determined as 15.8%. The growth at 100 µM in test [5] was 16%. Further, in [6], the IC50 was more than 2000 µM. Moreover, the inhibition at 50 µM in test [7] amounted to 9.7%. Moreover, the inhibition at 100 µM in [8] is 3.1%. Also, the inhibition at 400 µM in test [9] is -3.31%. The inhibition at 200 µM in test [10] is 7.48%.
As for `Cc1nc(C)c(COc2ccccc2C(=O)O)nc1C`, in [1], the 50% effective concentration (EC50) amounted to 610 µM. In addition, the growth at 12.5 µM in [2] came to 14.1%. Further, the growth at 25 µM in test [3] was determined as 17.4%. Also, the growth at 50 µM in [4] is 18.2%. Moreover, the growth at 100 µM in [5] amounted to 20%. The IC50 in test [6] stood at 400 µM. Besides, the inhibition at 50 µM in [7] turned out to be 15.6%. Further, the inhibition at 100 µM in test [8] was found to be 32%. Further, the inhibition at 400 µM in test [9] worked out at 51.7%. For the same compound, in test [10], the inhibition at 200 µM came out at 34.6%.
Regarding `COc1cc(C(=O)O)ccc1OCc1nc(C)c(C)nc1C`, in test [1], the 50% effective concentration (EC50) came to 810 µM. Moreover, the growth at 12.5 µM in [2] stood at 15.1%. The growth at 25 µM in test [3] came out at 16.4%. Besides, the growth at 50 µM in test [4] is 18.4%. The growth at 100 µM in test [5] is 19%. Moreover, the half-maximal inhibitory concentration (IC50) in [6] is more than 2000 µM. The inhibition at 50 µM in [7] came to 11.2%. In test [8], the inhibition at 100 µM amounted to 1.01%. Moreover, in [9], the inhibition at 400 µM worked out at 4.41%. Moreover, the inhibition at 200 µM in test [10] was -11.2%.
